Results from publication PMC6470603, “Design and Synthesis of Matrine Derivatives as Novel Anti-Pulmonary Fibrotic Agents via Repression of the TGFβ/Smad Pathway” (Molecules, 2019).

Assays:
[1] = tested on: TGF-β1 induced total collagen accumulation in MRC-5 cells; test: Sircol collagen assay: inhibition of TGF-β1-induced total collagen accumulation; type: cell-based, human; conditions: for IC50: Homo sapiens, MRC5, 10 ng/mL TGF-β1, 48 h, Sircol collagen assay; for SI, selectivity index (SI = CC50/IC50): MRC-5 cells
Method: Higher SI values indicates better safety profile.
MRC-5 cells in 1 × 10^5 cells/mL density were seeded in TC treated 96-well plates and allowed to reach confluence for 48 h. The cells were then starved using MEM-NEAA containing 0.2% BSA for 24 h. After starvation, the medium was changed to MEM-NEAA supplemented with 0.2% BSA, 100 μM L-Proline, 100 μM Ascorbic acid, with or without 10 ng/mL TGF-β1 (Peprotech) in the presence of vehicle or different concentrations of compounds. After 48 h incubation, the MRC-5 cells were washed with phosphate buffered saline (PBS) and fixed in −20 °C precooled methanol for 10 min. The cells were than washed with PBS before incubation in 0.1% PSR staining solution (0.1% Sirus red in saturated water solution of picric acid) for 1 h. The staining solution was then removed and the cells were washed with 0.1% acetic acid for three times. 200 μL of 0.1 mol/L sodium hydroxide solution were added to each well and the plates were placed on a rocking platform for 1 h. The optical density (OD) values at 550 nm were determined with an Infinite 2000 spectrophotometer.

[2] = tested on: Collagen type I alpha-1 chain (COL1A1) in MRC-5 cells; test: Immunofluorescence assay, COL1A1 expression; type: cell-based, human; conditions: 10 μM, 48 h, 10 ng/mL TGF-β1, mean fluorescence intensity
Method: (§1) Due to the significance of collagen in IPF pathogenesis, we first evaluated the inhibitory effect of key compound 3f against collagen accumulation. Immunofluorescence staining was employed to investigate collagen protein expression.
(§2) MRC-5 cells were seeded on 0.2% gelatin-coated glass coverslips and treated with or without 10 ng/mL TGF-β1 in the presence of vehicle or 10 μM 3f for 48 h. The cells were washed with PBS and fixed in freshly prepared 4% paraformaldehyde (PFA) at room temperature for 10 min. The cells were then permeabilized with 0.25% Triton X-100 for 10 min before 30 min of blocking by PBS solution supplemented with 1% BSA and 22.5 mg/mL glycine (the permeabilization was omitted for S100A4 and TGFβRI staining). The cells were incubated with primary antibody overnight at 4 °C and labeled with AlexaFluor 488-conjugated or Dylight 488-conjugated secondary antibody. […] The mean fluorescence intensity (MFI) of each photo was calculated by ImageJ. […]

[3] = tested on: Collagen type III alpha-1 chain (COL3A1) in MRC-5 cells; test: Immunofluorescence assay, COL3A1 expression; type: cell-based, human; conditions: 10 μM, 48 h, 10 ng/mL TGF-β1, mean fluorescence intensity
Method: as §1, §2

[4] = tested on: fibronectin in MRC-5 cells; test: Immunofluorescence assay, fibronectin expression; type: cell-based, human; conditions: 10 μM, 48 h, 10 ng/mL TGF-β1, mean fluorescence intensity
Method: Next, we evaluated the inhibitory effect of 3f against fibronectin expression. Fibronectin is another major constituent of ECM and plays a critical role in fibrogenesis by promoting the migration, proliferation, and adhesion of fibroblasts.
as §2

[5] = tested on: alpha-smooth muscle actin (α-SMA) in MRC-5 cells; test: Immunofluorescence assay, α-SMA expression (fibroblast-to-myofibroblast transition); type: cell-based, human; conditions: 10 μM, 48 h, 10 ng/mL TGF-β1, mean fluorescence intensity
Description: (§3) Myofibroblasts, a further differentiated subset of fibroblasts, are primary effector cells for collagen synthesis in fibrotic disorders. Inhibition of fibroblast differentiation is an important therapeutic target for IPF treatment. To examine whether 3f could inhibit TGF-β1-induced fibroblast-to-myofibroblast transition, we investigated the expression level of alpha-smooth muscle actin (α-SMA) and S100A4, the key markers which distinguish myofibroblasts from their precursor fibroblasts. We observed dramatic upregulation of myofibroblast markers in response to TGF-β1 stimulation (774.9% and 537.7% for α-SMA and S100A4, respectively), characterizing a strong expression of myofibroblast phenotype.
as §2, with “staining).” for “staining). The cells were incubated with primary antibody overnight at 4 °C and labeled with AlexaFluor 488-conjugated or Dylight 488-conjugated secondary antibody.”

S100A4 in MRC-5 cells = test: Immunofluorescence assay, S100A4 expression (fibroblast-to-myofibroblast transition); type: cell-based, human; conditions: 10 μM, 48 h, 10 ng/mL TGF-β1, mean fluorescence intensity
Description: as §3
as §2, with “staining).” for “staining). The cells were incubated with primary antibody overnight at 4 °C and labeled with AlexaFluor 488-conjugated or Dylight 488-conjugated secondary antibody.”

Smad2/3 in MRC-5 cells = test: Immunofluorescence assay, cellular localization of Smad2/3; type: cell-based, human; conditions: 10 μM, 48 h, 10 ng/mL TGF-β1
Description: Small mothers against decapentaplegic homologs (Smad) are key mediators and regulators of TGFβ signaling. The binding of TGF-β1 to TGFβ receptors leads to the phosphorylation of Smad2/3 complex, which then translocate into nucleus to enhance gene transcription by cooperating with DNA transcription factors. Inhibition of the nuclear translocation of Smad2/3 could attenuate the transcription of profibrotic genes such as collagens and α-SMA. Therefore, we investigated the cellular localization of Smad2/3 by immunofluorescence assay. As depicted in Figure 6A, Smad2/3 predominately localize in cytoplasm under normal conditions, but translocate into nucleus upon TGF-β1 stimulation.
as §2, with “staining).” for “staining). The cells were incubated with primary antibody overnight at 4 °C and labeled with AlexaFluor 488-conjugated or Dylight 488-conjugated secondary antibody.”

[6] = tested on: TGF-β receptor type I (TGFβRI) in MRC-5 cells; test: Immunofluorescence assay, TGFβRI expression; type: cell-based, human; conditions: 10 μM, 48 h, 10 ng/mL TGF-β1, mean fluorescence intensity
Description: Another emerging effect of Smad which acts as the amplifier of TGF-β signaling also contribute to fibrotic diseases. The nuclear translocation of Smad3 leads to the activation of the miR-433 promotor region. miR-433 promotes the decrease of antizyme inhibitor I (Azin1) and eventually results in depletion of polyamine, which causes the upregulation of expression level of TGF-β receptor type I (TGFβRI) and TGF-β1. This series of signaling creates a positive-feedback loop which amplify the TGFβ signaling.
as §2

MRC-5 fibroblasts = test: Scratch (wound healing) assay, TGF-β1-induced fibroblast migration; type: cell-based, human; conditions: 10 μM, 10 ng/mL TGF-β1, 24 h (TGF-β1 alone 85.0%)
Method: Fibroblast migration is the key event in pulmonary fibrogenesis. […] Inhibition of lung fibroblasts migration is a promising potential therapeutic target for IPF. We performed wound healing assay to investigate the inhibitory effect of 3f and matrine against fibroblast migration (Figure 7).
MRC-5 cells were seeded on 6-well plates and allowed to reach confluence for 48 h. The cell monolayer was gently scratched with a 1 mL pipette tip across the center of the well. After scratching, the cells were washed twice with medium to remove detached cells. The cells were then treated with or without 10 ng/mL TGF-β1 in the presence of vehicle or 10 μM 3f for 24 h. The gap area in wound region was quantitatively evaluated using ImageJ [30] and MRI wound healing tool plugin [31].

[7] = Cytotoxicity assay (CCK-8); conditions: human, MRC-5 cells (human fetal lung fibroblasts)
Method: (§4) Cytotoxicity of all compounds were also determined against MRC-5 cells, so as to calculate selectivity index (SI, CC50/IC50).
(§5) MRC-5 cells in passage between 21 to 26 were used for experiments.
(§6) MRC-5 cells were incubated with different concentrations of compounds for 48 h, and then 10 μL of CCK-8 solution were added to each well. The cells were incubated at 37 °C for another 3 h before determining the OD values at 492 nm. DMSO at 0.1% v/v final concentration was used to solubilize the test compounds, except for compound 3b, 3c, and 3e, where 1% v/v DMSO was used to ensure complete solubilization.

in vitro = conditions: human
Method: as §4, §5, §6

Which results are given for `O=C1CC(n2ccc3cc(Cl)ccc32)CC2C3CCCN4CCCC(CN12)C34` (centres unmarked) [3f, 13-(5-chloro-1H-indol-1-yl)-matrine]?
IC50 [1]: 3.3 ± 0.3 µM; SI, selectivity index (SI = CC50/IC50) [1]: 8.0; decrease in expression level of COL1A1 relative to TGF-β1 stimulation group [2]: 46.2%; decrease in expression level of COL3A1 relative to TGF-β1 stimulation group [3]: 31.1%; reduction of expression level of fibronectin comparing to TGF-β1 stimulation group [4]: 40.0%; downregulation in expression level of α-SMA compared to TGF-β1 stimulation group [5]: 45.8%; downregulation in expression level of S100A4 compared to TGF-β1 stimulation group (S100A4 in MRC-5 cells): 17.7%; effect on cytoplasm-to-nuclear translocation of Smad2/3 (Smad2/3 in MRC-5 cells): significantly inhibit the cytoplasm-to-nuclear translocation of Smad2/3; reduction of TGF-β1-induced upregulation of TGFβRI expression level [6]: 46.7%; closure of wound area over 24 h period (MRC-5 fibroblasts): 37.7%; CC50 at 48 h [7]: 26.7 ± 0.7 µM

For `O=C1C=CC[C@@H]2[C@H]3CCCN4CCC[C@@H](CN12)[C@@H]34` [Sophocarpine, reference compound], which IC50 [1] is on record?
Its IC50 is 1190 ± 135 µM.

And the “SI, selectivity index (SI = CC50/IC50)” value [1]?
The value was 2.7.

What about the CC50 at 48 h (in vitro) of the same compound?
Its CC50 at 48 h is 3160 ± 355 µM.
